Test results as given in PubChem BioAssay AID248 (DTP/NCI, 2004).
“And” between values parts separate entries of the source, which are not always exact repeats. Identical values can stand only once. Toxic doses and inconclusive results are not listed. No stated cut-off is given here; in the data, active means T/C of 150% or more; inactive means T/C below 125%.

Test system: L1210 leukemia ip in BDF1 mice, survival T/C
Test: NCI In Vivo Anticancer Drug Screen. Data for tumor model L1210 Leukemia (intraperitoneal) in B6D2F1 (BDF1) mice
Conditions: endpoint: mean survival time, higher = longer survival
In short: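 Tumor cells were implanted, animals were treated, and survival was followed. The result divides the treated measurement by the vehicle-control measurement.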

[1] = dose: 25.0 mg/kg/injection, schedule: Q04DX003 (ip), vehicle: saline
[2] = dose: 50.0 mg/kg/injection, schedule: Q01DX009 (ip), vehicle: saline
[3] = dose: 100.0 mg/kg/injection, schedule: Q01DX009 (ip), vehicle: saline
[4] = dose: 200.0 mg/kg/injection, schedule: Q01DX009 (ip), vehicle: saline

Measured: T/C

C[C@]12CCC(=O)C=C1CC[C@@H]1[C@@H]2[C@@H](O)C[C@@]2(C)[C@H]1CC[C@]2(O)C(=O)COC(=O)CCC(=O)O
inactive: dose: 50.0 mg/kg/injection, schedule: Q01DX001 (sc), vehicle: steriod suspending solution 107 % of control | dose: 100.0 mg/kg/injection, schedule: Q01DX001 (sc), vehicle: steriod suspending solution 104 % of control | dose: 100.0 mg/kg/injection, schedule: Q01DX009 (ip), vehicle: steriod suspending solution 108 % of control | dose: 100.0 mg/kg/injection, schedule: Q04DX003 (sc), vehicle: steriod suspending solution 100 % of control | dose: 200.0 mg/kg/injection, schedule: Q01DX001 (sc), vehicle: steriod suspending solution 105 % of control | dose: 200.0 mg/kg/injection, schedule: Q01DX009 (ip), vehicle: steriod suspending solution 101 % of control | dose: 200.0 mg/kg/injection, schedule: Q04DX003 (sc), vehicle: steriod suspending solution 96 % of control | dose: 400.0 mg/kg/injection, schedule: Q01DX001 (sc), vehicle: steriod suspending solution 94 % of control | dose: 400.0 mg/kg/injection, schedule: Q01DX009 (ip), vehicle: steriod suspending solution 103 % of control | dose: 400.0 mg/kg/injection, schedule: Q04DX003 (sc), vehicle: steriod suspending solution 102 % of control

C=C1N(C)c2ccccc2C1(C)C
inactive: dose: 0.5 mg/kg/injection, schedule: Q01DX015 (ip), vehicle: carboxymethylcellulose (CMC) 97 % of control | dose: 1.0 mg/kg/injection, schedule: Q01DX015 (ip), vehicle: carboxymethylcellulose (CMC) 101 % of control | dose: 2.0 mg/kg/injection, schedule: Q01DX015 (ip), vehicle: carboxymethylcellulose (CMC) 104 % of control | dose: 4.0 mg/kg/injection, schedule: Q01DX015 (ip), vehicle: carboxymethylcellulose (CMC) 97 % of control and 123 % of control | dose: 8.0 mg/kg/injection, schedule: Q01DX015 (ip), vehicle: carboxymethylcellulose (CMC) 123 % of control

O=S(=O)(c1ccccc1)c1ccc(O)cc1
inactive: dose: 50.0 mg/kg/injection, schedule: Q01DX001 (ip), vehicle: saline 95 % of control | dose: 100.0 mg/kg/injection, schedule: Q01DX001 (ip), vehicle: saline 89 % of control | dose: 200.0 mg/kg/injection, schedule: Q01DX001 (ip), vehicle: saline 108 % of control | dose: 400.0 mg/kg/injection, schedule: Q01DX001 (ip), vehicle: saline 101 % of control

CC(=O)Nc1ccc(O)cc1
inactive: dose: 100.0 mg/kg/injection, schedule: Q01DX001 (ip), vehicle: carboxymethylcellulose (CMC) 93 % of control | dose: 100.0 mg/kg/injection, schedule: Q04DX002 (ip), vehicle: saline 116 % of control | dose: 100.0 mg/kg/injection, schedule: Q04DX003 (ip), vehicle: Klucel (hydroxypropylcellulose) (HPC) 97 % of control | dose: 200.0 mg/kg/injection, schedule: Q01DX001 (ip), vehicle: carboxymethylcellulose (CMC) 96 % of control | dose: 200.0 mg/kg/injection, schedule: Q04DX002 (ip), vehicle: saline 100 % of control | dose: 200.0 mg/kg/injection, schedule: Q04DX003 (ip), vehicle: Klucel (hydroxypropylcellulose) (HPC) 104 % of control | dose: 400.0 mg/kg/injection, schedule: Q01DX001 (ip), vehicle: carboxymethylcellulose (CMC) 107 % of control | dose: 400.0 mg/kg/injection, schedule: Q04DX002 (ip), vehicle: saline 88 % of control | dose: 400.0 mg/kg/injection, schedule: Q04DX003 (ip), vehicle: Klucel (hydroxypropylcellulose) (HPC) 111 % of control

CCCNC1=C(N2CC2)C(=O)C(NCCC)=C(N2CC2)C1=O
inactive: dose: 0.09 mg/kg/injection, schedule: Q04DX003 (ip), vehicle: saline 96 % of control and 109 % of control | dose: 0.18 mg/kg/injection, schedule: Q04DX003 (ip), vehicle: saline 97 % of control and 106 % of control | dose: 0.37 mg/kg/injection, schedule: Q01DX001 (ip), vehicle: saline 108 % of control | dose: 0.37 mg/kg/injection, schedule: Q04DX003 (ip), vehicle: saline 100 % of control and 103 % of control | dose: 0.39 mg/kg/injection, schedule: Q01DX009 (ip), vehicle: saline 95 % of control and 102 % of control | dose: 0.75 mg/kg/injection, schedule: Q01DX001 (ip), vehicle: saline 108 % of control | dose: 0.75 mg/kg/injection, schedule: Q04DX003 (ip), vehicle: saline 105 % of control and 108 % of control | dose: 0.78 mg/kg/injection, schedule: Q01DX009 (ip), vehicle: saline 107 % of control and 118 % of control | dose: 1.5 mg/kg/injection, schedule: Q01DX001 (ip), vehicle: saline 117 % of control | dose: 1.5 mg/kg/injection, schedule: Q04DX003 (ip), vehicle: saline 100 % of control | dose: 1.56 mg/kg/injection, schedule: Q01DX009 (ip), vehicle: saline 107 % of control and 116 % of control | dose: 1.56 mg/kg/injection, schedule: Q04DX003 (ip), vehicle: saline 103 % of control | dose: 3.0 mg/kg/injection, schedule: Q01DX001 (ip), vehicle: saline 118 % of control | dose: 3.0 mg/kg/injection, schedule: Q04DX003 (ip), vehicle: saline 118 % of control and 120 % of control | dose: 3.12 mg/kg/injection, schedule: Q04DX003 (ip), vehicle: saline 93 % of control | dose: 6.0 mg/kg/injection, schedule: Q01DX001 (ip), vehicle: saline 90 % of control | dose: 6.25 mg/kg/injection, schedule: Q04DX003 (ip), vehicle: saline 98 % of control | dose: 12.0 mg/kg/injection, schedule: Q01DX001 (ip), vehicle: saline 110 % of control | dose: 12.5 mg/kg/injection, schedule: Q04DX003 (ip), vehicle: saline 115 % of control | [1] 113 % of control

O=C(OCC(OC(=O)c1ccccc1)C1OCC(OC(=O)c2ccccc2)C1OC(=O)c1ccccc1)c1ccccc1 (stereo unspecified)
inactive: dose: 100.0 mg/kg/injection, schedule: Q04DX003 (ip), vehicle: saline with Tween-80 88 % of control | dose: 200.0 mg/kg/injection, schedule: Q04DX003 (ip), vehicle: saline with Tween-80 88 % of control | dose: 400.0 mg/kg/injection, schedule: Q04DX003 (ip), vehicle: saline with Tween-80 88 % of control

O=C(CCl)c1cccnc1C(=O)O
inactive: dose: 25.0 mg/kg/injection, schedule: Q01DX009 (ip), vehicle: saline sonified 94 % of control | dose: 50.0 mg/kg/injection, schedule: Q01DX009 (ip), vehicle: saline sonified 91 % of control | dose: 100.0 mg/kg/injection, schedule: Q01DX009 (ip), vehicle: saline sonified 89 % of control

CN(C)CCCN1c2ccccc2S(=O)c2ccc(Cl)cc21 (stereo unspecified)
inactive: dose: 12.5 mg/kg/injection, schedule: Q01DX009 (ip), vehicle: saline 96 % of control | dose: 25.0 mg/kg/injection, schedule: Q01DX009 (ip), vehicle: saline 102 % of control | [1] 109 % of control | [2] 111 % of control | dose: 50.0 mg/kg/injection, schedule: Q04DX003 (ip), vehicle: saline 106 % of control | [3] 96 % of control | dose: 100.0 mg/kg/injection, schedule: Q04DX003 (ip), vehicle: saline 95 % of control | [4] 107 % of control | dose: 200.0 mg/kg/injection, schedule: Q04DX003 (ip), vehicle: saline 103 % of control

Cc1ccccc1C(=O)Nc1ccccc1
inactive: [2] 103 % of control | [3] 100 % of control | [4] 103 % of control

CC(=O)NNC(=O)c1ccncc1
inactive: dose: 100.0 mg/kg/injection, schedule: Q01DX001 (ip), vehicle: water 93 % of control | dose: 100.0 mg/kg/injection, schedule: Q01DX009 (ip), vehicle: water 101 % of control | dose: 200.0 mg/kg/injection, schedule: Q01DX001 (ip), vehicle: water 98 % of control | dose: 200.0 mg/kg/injection, schedule: Q01DX009 (ip), vehicle: water 106 % of control and 110 % of control | dose: 400.0 mg/kg/injection, schedule: Q01DX001 (ip), vehicle: water 102 % of control | dose: 600.0 mg/kg/injection, schedule: Q01DX009 (ip), vehicle: water 122 % of control | dose: 800.0 mg/kg/injection, schedule: Q01DX009 (ip), vehicle: water 97 % of control

Cc1ccc(NC(=O)OCCSc2ccc(Cl)cc2)c([N+](=O)[O-])c1
inactive: dose: 100.0 mg/kg/injection, schedule: Q04DX002 (ip), vehicle: Klucel (hydroxypropylcellulose) (HPC) 99 % of control | dose: 200.0 mg/kg/injection, schedule: Q04DX002 (ip), vehicle: Klucel (hydroxypropylcellulose) (HPC) 99 % of control | dose: 400.0 mg/kg/injection, schedule: Q04DX002 (ip), vehicle: Klucel (hydroxypropylcellulose) (HPC) 89 % of control
